Results taken from patent US5486596A, “Analogues of 8-D-homoarginine vasopressin” (Ceskoslovenska akademie ved, priority 1989, dated 1996).
Read-outs that look alike come from different tables or passages of the source. Bridge positions count the residues as written; N and C are the ends. Square brackets hold non-standard residues; d marks the D form. Peptide text beside a SMILES is read from it. dPhe(4-Et) = CCc1ccc(C[C@@H](N)C(=O)O)cc1; dPhe(4-Me) = Cc1ccc(C[C@@H](N)C(=O)O)cc1; Phe(4-Et) = CCc1ccc(C[C@H](N)C(=O)O)cc1; Phe(4-Me) = Cc1ccc(C[C@H](N)C(=O)O)cc1; d(hArg) = N=C(N)NCCCC[C@@H](N)C(=O)O; Mpa = O=C(O)CCS

How the values were obtained:
rats [1] = details: for Uterotonic activity: agonistic activity, rat
despinalized male rats = details: for Pressoric activity: despinalized male rats
rats [2] = test: antidiuretic activity according to Burn, dDAVP as standard; type: in vivo; details: rat, relative to the standard dDAVP
Experimental: The biological activity of the peptides was tested on rats, namely: the uterotonic activity (agonistic and antagonistic) according to the Holton's method (Holtdon, J.: Brit. J. Pharmacol., 3,328, 1960) modified by Munsick (Endocrinology, 66, 451, 1960), the inhibitory activity being expressed as pA2 (Eggen et al.: J. Gen. Physiol., 56, 250, 1970), the pressoric activity was determined on despinalized male rats according to Krejci et al. (Brit. J. Pharm. Chemother., 30, 497, 1967) and the antidiuretic activity according to Burn (Burn et al.: Biol. Stand. Oxford Univ. Press, London, 1950) with [deaminol, D-arginine^8 ]vasopressin (dDAVP) used as the standard.

FVIII = FVIII activity in squirrel monkeys (blood coagulation); type: in vivo; details: for FVIII/%: squirrel monkeys, saline control = 100% (basal value)
Experimental: (§1) Compounds of the present invention ware evaluated for their ability to affect blood coagulation and fibrinolytic properties. The compounds were compared with [8-D-argenine]deamino vasopressin in squirrel monkeys. The findings of dissociated blood coagulation/fibrinolytic properties and the inhibitory properties are new and surprising properties for the series of vasopressin derived peptides.

tPA = tPA activity in squirrel monkeys (fibrinolytic properties); type: in vivo; details: for tPA/%: squirrel monkeys, saline control = 100% (basal value)
Experimental: as §1

[3] = inhibitory (antagonistic) activity expressed as pA2, rat
[4] = inhibitory activity expressed as pA2, despinalized male rats

Compound | Uterotonic activity, pA2 (rats [1]) | Antidiuretic activity (rats [2]) | Uterotonic activity, pA2 (rats [1]; [3]) | FVIII/% (FVIII) | tPA/% (tPA) | other results
COc1ccc(C[C@@H]2NC(=O)[C@@H](N)CSSC[C@@H](C(=O)N3CCC[C@H]3C(=O)N[C@H](CCCCNC(=N)N)C(=O)NCC(N)=O)NC(=O)[C@H](CC(N)=O)NC(=O)[C@H](CCC(N)=O)NC(=O)[C@H](Cc3ccccc3)NC2=O)cc1 [I, [2-O-methyltyrosine, 8-D-homoarginine]vasopressin] | 7.7 | – | – | – | – | –
Cc1ccc(C[C@@H]2NC(=O)CCSSC[C@@H](C(=O)N3CCC[C@H]3C(=O)N[C@H](CCCCNC(=N)N)C(=O)NCC(N)=O)NC(=O)[C@H](CC(N)=O)NC(=O)[C@H](CCC(N)=O)NC(=O)[C@H](Cc3ccccc3)NC2=O)cc1 [IX, [Mpr^1, L-p-MePhe^2, D--Har^8] vasopressin] ([Mpa][Phe(4-Me)]FQNCP[d(hArg)]G-NH2; disulfide 1-6) | 8.38 | – | – | – | – | Pressoric activity, pA2 (despinalized male rats; rat, in vivo): 6.2
COc1ccc(C[C@@H]2NC(=O)CCSSC[C@@H](C(=O)N3CCC[C@H]3C(=O)N[C@H](CCCCNC(=N)N)C(=O)NCC(N)=O)NC(=O)[C@H](CC(N)=O)NC(=O)[C@H](CCC(N)=O)NC(=O)[C@H](Cc3ccccc3)NC2=O)cc1 [VI, [1-mercaptopropionic acid, 2-O-methyltyrosine 8-D-homoarginine]vasopressin] | 8.1 | – | – | – | – | –
CCc1ccc(C[C@@H]2NC(=O)CCSSC[C@@H](C(=O)N3CCC[C@H]3C(=O)N[C@H](CCCCNC(=N)N)C(=O)NCC(N)=O)NC(=O)[C@H](CC(N)=O)NC(=O)[C@H](CCC(N)=O)NC(=O)[C@H](Cc3ccccc3)NC2=O)cc1 [VII, [Mpr^1, L-p-EtPhe^2, D--Har^8] vasopressin] ([Mpa][Phe(4-Et)]FQNCP[d(hArg)]G-NH2; disulfide 1-6) | 8.0 | – | – | – | – | Pressoric activity, pA2 (despinalized male rats; rat, in vivo): 6.2
CCc1ccc(C[C@H]2NC(=O)CCSSC[C@@H](C(=O)N3CCC[C@H]3C(=O)N[C@H](CCCCNC(=N)N)C(=O)NCC(N)=O)NC(=O)[C@H](CC(N)=O)NC(=O)[C@H](CCC(N)=O)NC(=O)[C@H](Cc3ccccc3)NC2=O)cc1 [VIII, [Mpr^1, D-p-EtPhe^2, D--Har^8] vasopressin] ([Mpa][dPhe(4-Et)]FQNCP[d(hArg)]G-NH2; disulfide 1-6) | 8.63 | – | – | – | – | Pressoric activity, pA2 (despinalized male rats; rat, in vivo): 6.35
Cc1ccc(C[C@H]2NC(=O)CCSSC[C@@H](C(=O)N3CCC[C@H]3C(=O)N[C@H](CCCCNC(=N)N)C(=O)NCC(N)=O)NC(=O)[C@H](CC(N)=O)NC(=O)[C@H](CCC(N)=O)NC(=O)[C@H](Cc3ccccc3)NC2=O)cc1 [X, [Mpr^1, D-p-MePhe^2, D--Har^8] vasopressin] ([Mpa][dPhe(4-Me)]FQNCP[d(hArg)]G-NH2; disulfide 1-6) | 8.68 | – | – | – | – | –
[2-p-ethyl-D-phenylalanine, 8-D-homoarginine]vasopressin [III] | – | < 0.1 % dDAVP | 8.15 | – | – | Pressoric activity, pA2 (despinalized male rats; [4]): 6.5
[2-p-ethyl-L-phenylalanine, 8-D-homoarginine]vasopressin [II] | – | < 0.1 % dDAVP | 7.40 | – | – | Pressoric activity, pA2 (despinalized male rats; [4]): 6.5
[2-p-methyl-D-phenylalanine, 8-D-homoarginine]vasopressin | – | < 0.1 % dDAVP | 6.85 | 55% | 65% | Pressoric activity (despinalized male rats): 0.04 IU/mg
[2-p-methyl-L-phenylalanine, 8-D-homoarginine]vasopressin [IV] | – | < 0.1 % dDAVP | 6.85 | 85% | 77% | Pressoric activity (despinalized male rats): 0.04 IU/mg
[8-D-arginine] deamino vasopressin | – | – | – | 149% | 138.9% | effect on expression of Factor VIII, in words (FVIII; monkey, in vivo): increase; effect on expression of tPA, in words (tPA; monkey, in vivo): increase
[D--Har^8 ] vasopressin [reference compound] | – | ~ 1 % dDAVP | – | – | – | Uterotonic activity (rats [1]): 0.9 IU/mg
[Mpr^1, D--Har^8 ] vasopressin [reference compound] | – | ~ 5 % dDAVP | – | 127% | 88% | Uterotonic activity (rats [1]): 0.8 IU/mg; Pressoric activity (despinalized male rats): 0.28 IU/mg
